Read-outs that look alike come from different tables or passages of the source.
How the values were obtained:
[1] = system: recombinant antigens from Plasmodium falciparum and Mycobacterium ulcerans; experiment: Pilot immunization study with adjuvanted recombinant protein antigens; assay type: in vivo, mouse; details: subcutaneous, 10 nMol
Description: A pilot immunization study was conducted using Compound A and SC12 adjuvanted protein antigens. The immunization experiments were performed with two recombinant proteins expressed in E. coli. One antigen was derived from the malaria parasite Plasmodium falciparum and the other one from Mycobacterium ulcerans, which cause the ulcerative skin disease Buruli ulcer.

[2] = system: PBMCs; experiment: IL-6 and TNF-alpha secretion in PBMC model (Model 2), ELISA; assay type: cell-based, human; details: Homo sapiens, PBMC
[3] = system: human whole blood; experiment: Cytokine secretion in human whole blood assay, ELISA; assay type: cell-based; details: Homo sapiens
Description: Before drawing the blood, the compounds were added to 96 well round bottom plates in a 10× diluted sample at 20 ul. The compounds were diluted in RPMI media without serum but with antibiotics. Antibiotics were added at a 10× concentration. After drawing the blood, the whole blood sample was gently mixed to obtain a homogeneous sample, and 180 ul was added to each well.
All compounds were setup in concentrations at 0-0.01-0.03-0.1-0.5-2.0-10.0 micromolar as the final concentration. Vehicle control was DMSO control, where we used the highest concentration used for the compounds. After addition of blood, all plates were gently agitated at 37° C. and 5% CO2 until harvest.
For the 6 hours time point, the plate was centrifuged 500×g. Supernatant (SN) was transferred to a tube and centrifuged at 10.000×g for 10 min to get rid of cells and protein aggregates. The clarified supernatant was frozen at −80° C. until analysis.
The SN was removed to another tube and centrifuged at 10.000×g for 10 min. to get rid of aggregates etc. The clarified supernatant was frozen at −80° C. until analysis.
Concentrations of cytokines were determined by ELISA from R&D Systems. The results were analyzed in Graph Pad Prism in order to prepare dose-response
curves, and for determination of EC50 values. FACS analysis was made by using Becton-Dickinson FACSDiva software and subsequently illustrated in Graph Pad Prism.

[4] = Solubility, method of the European Pharmacopoeia 6.0; assay type: physicochemical
Description: The method reported in the European Pharmacopoeia 6.0 was used.
Batch CH730/16/8g was tested according to the method described in E. Ph: DMSO was added in 0.1 mL portions to 103.7 mg of product and the suspension was shaken with a Vortex instrument for 3 min after each addition.
The batches CH730/16/8c, CH730/16/8g and CH730/23/8e were then tested stirring each suspension for a longer time; 100 mg of each batch dissolved completely in 0.2 mL of DMSO after stirring for 30 minutes.

[5] = Metabolic profiling in rabbit plasma, LC/MS/MS; assay type: in vitro ADME
Description: (§1) Before the analysis of the incubated samples, compound A was infused manually to understand parent fragmentation. Infusion was performed by diluting a 50 mM solution in DMSO to 1 μM with ACN/MeOH 1/1. Sample solution was infused into the ion trap source at a flow rate of 4 μl/min.
(§2) Incubated samples were analyzed on a HPLC (Waters) interfaced with an Ion Trap HCT ultra (Bruker Daltonics).
(§3) Assignment of the structures was done by comparison of the MS/MS analysis of the spectra with the parent spectrum.
(§4) Metabolic profiling was studied in rabbit and human plasma. In both matrixes the parent compound (50 uM starting concentration) was totally metabolized at the last time point. Metabolites were detected in Full scan and peaks were assigned by MH+ and MS/MS spectra.

[6] = Stability on storage by HPLC (solid or chloroform solution; temperature, light)
Description: At this point, a stability study was conducted on batch CH730/16/8g.
The samples were analyzed at t=0 and after 20 days.

[7] = system: RAW.264 cells; experiment: Intracellular uptake in RAW.264 cells, LC-MS; assay type: in vitro ADME; details: 10 microM
Description: 5×10^6 RAW.264 cells were adhered overnight in 10 cm tissue culture dishes. […] […] Supernatant (2 ml) and cells (pellets) were collected by trypsinization and frozen at […] for subsequent analysis by LC-MS.

[8] = Metabolic profiling in human plasma, LC/MS/MS; assay type: in vitro ADME
Description: as §1, §2, §3, §4

[9] = system: mouse macrophage cell line Raw264.7; experiment: IL-6 and TNF-alpha secretion in Raw264.7 cells (Model 1), ELISA; assay type: cell-based; details: for EC50: Raw 264.7, 24 hours, 7 doses
[10] = Intrabladder application, serum cytokines (Luminex) and histology; assay type: in vivo, mouse; details: day 0, 2 hour time point; intravesical about 207 nmoles in 50 μl
Description: Female C57BU6 mice were anesthetized with ketamine/xylazine. The 50 microliter formulated compounds were intravesically administered for twenty minutes at each treatment. The treatment schedule and doses are in Table 35 and 36, respectively. The levels of cytokines (IL-6, IL-12, and TNF-alpha) were determined by Luminex assay. Paraffin sections were prepared and H & E staining performed.

[11] = system: human PBMCs; experiment: IL-6 secretion in human PBMCs, two batches of Compound A and SC12 (Example 4); assay type: cell-based; details: PBMCs, 10-1-0.1-0.01 micromolar
Description: PBMCs were purified from two donors and plated into 96 well plates at 2×10^5 cells/well in RPMI media including human 2% heat inactivated AB serum, glutamine, Pen-strep and β-mercaptoethanol. The cells were treated with TLR7 agonists for 24 h in 4 doses. The conditioned media was removed for ELISA analyses for IL-6, and the EC50 value determined for each compound and each batch.
All compounds were tested in four concentrations (10-1-0.1-0.01 micromolar).
Concentrations of IL-6 were determined by ELISA from R&D Systems using the Microsoft Excel software. The results were analyzed in Graph Pad Prism in order to prepare dose-response curves, and for determination of EC50 values.

[12] = system: MB49 cells; experiment: Mouse bladder cancer model, intravesical treatment (Experiment 24); assay type: in vivo; details: Experiment 1; in Phosal 50, 50 microliters, 20 minutes; 2 h and 24 h
Description: A set of experiments was conducted with SC12 in various solutions, in a mouse bladder cancer model.
7-9 week old C57BU6 mice were implanted with 1×10^6 MB49 cells after 0.1% poly L lysine treatment on day 0. […] On day 11, mice were sacrificed and organs were harvested.

[13] = system: Cutaneous Squamous Cell Carcinoma (SCC) cell lines SCL-I, SCL-II, SCC-12, SCC-13; details: FIG. 11
Description: SCC cells are grown under standard conditions (10% FBS).
Time and dose dependency of effects on total cell numbers have been investigated by real-time cell analysis, which is based on continuous monitoring of electric conductance in microtiter wells (E-plates, Roche), which corresponds to the cell numbers. […] For these assays 4 cell lines may be used to obtain a representative overview on the effects on SCC cells.

[14] = system: AY-27 rat bladder cancer cell-line; experiment: Orthotopic rat bladder cancer model, intravesical instillation
[15] = system: HLA-DR+/CD20+ B cells; experiment: FACS, B cell activation in whole blood; assay type: cell-based, human; details: 24 hours; 2 and 10 uM
Description: B-cells: HLA-DR/CD20/CD40
The FACS staining was performed according to the manufacturer's instructions. Lysis of red blood cells was performed before FACS staining in order to minimize auto-florescence. To include as many B cells and DCs in the study as possible the FACS analyses were performed on 500,000 cells in total for each staining. […] The results of the individual analysis were present as Mean Fluorescence Intensity (MFI) values, for certain activation marker in a given gate setting, represent the actual cell subset. The isotype background values have been used to set the gates so that a maximum at 2% of unspecific stained cells could be found in the positive gates.
The analysis of expression of the activation marker CD40 on B cells was made on double positive HLA-DR (MHC class II) (P4 gate) and CD20 cells (B cell marker) (P8 gate).

[16] = system: myeloid CD11c+/CD123− DCs; experiment: FACS, myeloid DC activation in whole blood; assay type: cell-based, human; details: 24 hours; 0.1 and 0.5 uM
Description: The FACS analysis for donor 1 and donor 2 was made on another day than donor 3. The compound concentrations were as follows:
B cell activation: 2 and 10 uM mDC/pDC: 0.1 and 0.5 uM
The FACS analysis was used to identify whether the test compounds could induce activation of B cells, and two different subsets of dendritic cells, namely the myeloid CD11c+/CD123− DCs and the plasmacytoid CD11c−/CD123+DCs. The following markers were studied to identify the activation status of the different subsets:
The FACS staining was performed according to the manufacturer's instructions. Lysis of red blood cells was performed before FACS staining in order to minimize auto-florescence. To include as many B cells and DCs in the study as possible the FACS analyses were performed on 500,000 cells in total for each staining. A P1 gate was set only to include relevant cells on FSC vs. SSC (see FIGS. 12-15). The results of the individual analysis were present as Mean Fluorescence Intensity (MFI) values, for certain activation marker in a given gate setting, represent the actual cell subset. The isotype background values have been used to set the gates so that a maximum at 2% of unspecific stained cells could be found in the positive gates.
The analysis of myeloid DCs was based on HLA-DR+/CD11c+/CD123-cells, thus all analyzed cells was included in the HLA-DR+(P3) gate and CD11c+/CD123− (Q4) gate (see gates in FIGS. 13-15).

[17] = Solubility observations in the text; details: methanol, ethanol, dichloromethane, ethyl acetate, acetonitrile, acetone, chloroform

In the case of CCCCCCCC/C=C\CCCCCCCC(=O)OCC(COP(=O)(O)OCCNC(=O)c1ccc(Cn2c(=O)[nH]c3c(N)nc(OCCOC)nc32)cc1)OC(=O)CCCCCCC/C=C\CCCCCCCC (centres unmarked) [Compound A, 2-(4-((6-amino-2-(2-methoxyethoxy)-8-oxo-7H-purin-9(8H)-yl)methyl)benzamido)ethyl 2,3-bis(oleoyloxy)propyl phosphate], the “local side effects” value [1] is reported as “No local side effects”, the EC50 ([2]; 24 hours, read-out: TNF-alpha secretion, Donor 1 MC50) is reported as 644 nM and the EC50 ([2]; 24 hours, read-out: TNF-alpha secretion, Donor 2 MC50) is reported as 665 nM. It also gave an EC50 ([2]; 24 hours, read-out: TNF-alpha secretion, Donor 3 MC50) of 639 nM, an EC50 ([2]; average of three donors, read-out: IL-6 secretion, Average EC50) of 485 nM and an EC50 ([2]; average of three donors, read-out: TNF-alpha secretion, Average EC50) of 650 nM. It also gave an EC50 ([3]; 6 h, read-out: EC50-IFN-alpha, 6 h Incubation, Donor 1, whole blood) of 1170 nM, an EC50 ([3]; 6 h, read-out: EC50-IFN-alpha, 6 h Incubation, Donor 2, whole blood) of 1840 nM and an EC50 ([3]; 6 h, read-out: EC50-IFN-alpha, 6 h Incubation, Donor 3, whole blood) of 1940 nM. For the same molecule, the EC50 ([3]; 6 h, read-out: EC50-IL-6, 6 h Incubation, Donor 1, whole blood) was 940 nM, the EC50 ([3]; 6 h, read-out: EC50-IL-6, 6 h Incubation, Donor 2, whole blood) was 630 nM and the EC50 ([3]; 6 h, read-out: EC50-IL-6, 6 h Incubation, Donor 3, whole blood) was 520 nM. It also gave an EC50 ([3]; 6 h, read-out: EC50-IL-12, 6 h Incubation, Donor 1, whole blood, IL-12p40) of 2310 nM, an EC50 ([3]; 6 h, read-out: EC50-IL-12, 6 h Incubation, Donor 2, whole blood, IL-12p40) of 2090 nM and an EC50 ([3]; 6 h, read-out: EC50-IL-12, 6 h Incubation, Donor 3, whole blood, IL-12p40) of 3430 nM. It also gave an EC50 ([3]; 24 h, read-out: EC50-IFN-alpha, 24 h Incubation, Donor 1) of 240 nM, an EC50 ([3]; 24 h, read-out: EC50-IFN-alpha, 24 h Incubation, Donor 2) of 470 nM and an EC50 ([3]; 24 h, read-out: EC50-IFN-alpha, 24 h Incubation, Donor 3) of 350 nM. It also gave an EC50 ([3]; 24 h, read-out: EC50-IL-6, 24 h Incubation, Donor 1) of 520 nM, an EC50 ([3]; 24 h, read-out: EC50-IL-6, 24 h Incubation, Donor 2) of 320 nM and an EC50 ([3]; 24 h, read-out: EC50-IL-6, 24 h Incubation, Donor 3) of 290 nM. It also gave an EC50 ([3]; 24 h, read-out: EC50-IL-10, 24 h Incubation, Donor 1) of 1290 nM, an EC50 ([3]; 24 h, read-out: EC50-IL-10, 24 h Incubation, Donor 2) of 860 nM and an EC50 ([3]; 24 h, read-out: EC50-IL-10, 24 h Incubation, Donor 3) of 2280 nM. It also gave an EC50 ([3]; 24 h, whole blood, read-out: EC50-IL-12p40, 24 h Incubation, Donor 1) of 2870 nM, an EC50 ([3]; 24 h, whole blood, read-out: EC50-IL-12p40, 24 h Incubation, Donor 2) of 2740 nM and an EC50 ([3]; 24 h, whole blood, read-out: EC50-IL-12p40, 24 h Incubation, Donor 3) of 4030 nM. For the same molecule, the “solubility in DMSO” value [4] was “soluble”, the solubility ([4]; chloroform, organic solvent or mixture, thermodynamic from solid) was 100 mg/mL and the solubility at 3 min ([4]; organic solvent or mixture, thermodynamic from solid, batch Ch730/16/8g, DMSO added in 0.1 mL portions, Vortex 3 min after each addition) was 259 mg/mL. For the same molecule, the solubility at 30 min ([4]; organic solvent or mixture, thermodynamic from solid, three batches, 100 mg in 0.2 mL of DMSO after stirring for 30 minutes) was 500 mg/mL, the “metabolism in plasma” value [5] was “highly metabolized by esterases” and the “degradation” value ([6]; T>25° C. and in the presence of light) was “rapid degradation”. For the same molecule, the “degradation of solid samples” value ([6]; batch CH730/16/8g, solid) was “almost completely degraded after few days”, the “stability” value ([6]; room temperature and/or in the presence of light) was “not a stable compound” and the “Intracellular Concentration % of total” value ([7]; Incubation 1 hours) was 5.50 % of total. The “Intracellular Concentration % of total” value ([7]; Incubation 6 hours) was 4.27 % of total, the “Intracellular Concentration % of total” value ([7]; Incubation 16 hours) was 1.53 % of total and the “metabolism in plasma” value [8] was “highly metabolized by esterases”. For the same molecule, the EC50 ([9]; Mus musculus, RAW264.7, read-out: EC 50 IL 6) was 6 nM and the EC50 ([9]; Mus musculus, RAW264.7, read-out: EC 50 TNF-alpha) was 9 nM.

Molecule COCCOc1nc(N)c2[nH]c(=O)n(Cc3ccc(C(=O)O)cc3)c2n1 [Free pharmacophore, reference compound] has an EC50 ([9]; read-out: EC 50 TNF-alpha) of 707 nM.

For CC(C)Cn1cnc2c(N)nc3ccccc3c21 [Imiquimod, reference compound], the “serum IL-12” value [10] was “elevated levels of IL-12”, the “IL-6 induction” value [11] was “only active in inducing IL-6 at the highest concentration (10 uM)” and the “serum IL-6 and TNF-alpha” value [12] was “under the detection levels”. The “cell numbers, real-time cell analysis” value [13] was “reduced cell numbers”, the “toxicity” value ([14]; intravesical, day 2 and 5) was “No signs of toxicity” and the “Number of rat bladders Tumor free” value ([14]; of 14 per group) was 5. The “Number of rat bladders with pT2 Tumor” value ([14]; of 14 per group) was 9, the “CD40 expression on B cells (MFI, words)” value [15] was “increased expression in all three donors” and the “CD80 expression in mDCs (MFI, words)” value [16] was “weak expression of CD80 in donor 1 and 2”. The “potency as TLR7 agonist” value [9] was “weakest induction of IL-6 and TNF-alpha”.

In the case of COCCOc1nc(N)c2[nH]c(=O)n(Cc3ccc(C(=O)O)cc3)c2n1 [Compound 7, 4-((6-amino-2-(2-methoxyethoxy)-8-oxo-7H-purin-9(8H)-yl)methyl)benzoic acid], the “solubility in common solvents” value [17] is reported as “not soluble in most of the common solvents”.

Source: US20120003298A1, “METHODS FOR INDUCING AN IMMUNE RESPONSE” (priority 2010, published 2012)
